Source: patent US11938113B2, “Epigallocathechin gallate solution” (ASSISTANCE PUBLIQUE—HOPITAUX DE PARIS, priority 2017, dated 2024)
“And” between values parts separate entries of the source, which are not always exact repeats. Equal values may be shown once. Read-outs that look alike come from different tables or passages of the source.

Experiments:
[1] = at normal condition, in water; cited from earlier work
[2] = Solubility of EGCG in sucrose solution versus EGCG alone in water; assay type: physicochemical; details: after 4 hours of dissolution
From the text: The solubility of EGCG in a solution containing 10% by weight of sucrose is compared to that of EGCG alone in water.

[3] = Stress stability testing (thermal gradient 25 to 135° C., HPLC of residue); assay type: physicochemical; details: heating 25 to 135° C. at 5° C. per min
Method: Both solutions were subjected to progressive heating ranging from 25 to 135° C. at a rate of 5° C. per minute. At end of heating, the residues formed from each solution are illustrated in FIG. 2A and are analyzed by high performance liquid chromatography.
1 mL of the reference standard suspension and a formulation of the invention disclosed Table 1 before were subjected to a thermal gradient program ranging from 25 to 135° C. at a rate of 5° C. per min. At the end of this exposure, part of each of the residues formed was deposited on a glass slide and the remaining part analyzed by high performance liquid chromatography.

[4] = after 1-h ultra violet irradiation; cited from earlier work

What does the source list for O=C(O[C@@H]1Cc2c(O)cc(O)cc2O[C@@H]1c1cc(O)c(O)c(O)c1)c1cc(O)c(O)c(O)c1 [EGCG, Epigallocatechin gallate]?
solubility of EGCG [1]: 4.6 g/L and 10 mM; solubility of EGCG [2]: ≤ 5000 µg/mL; appearance of residue at the end of heating [3]: black; chromatographic analysis of residue (EGCG remaining) ([3]; HPLC): practically no more EGCG; decomposition of EGCG [4]: 70%
